In assay [1] the test system is MCP-1 production by THP-1 cells. As to the kind of experiment: MCP-1 production by macrophages. The assay is classed as cell-based, human. The note with it: read-out: IC50 MCP-1 production. As to the method: (§1) The human macrophage cell line, THP-1 was plated in a 12 well plate such that each well contains 1×10^6 cells in 2 ml of media containing 10% FCS. Opsonized zymosan was prepared by resuspending 20 mg of zymosan A in 2 ml of ddH2O and homogenizing until a uniform suspension was obtained. Homogenized zymosan was pelleted at 250 g and resuspended in 4 ml of human serum for a final concentration of 5 mg/ml and incubated in a 37° C. water bath for 20 minutes to enable opsonization. Geldanamycin was prepared in DMSO at a concentration of 10^−2 M and serially diluted 10-fold to give a range of stock concentrations (10^−8 M to 10^−2 M).
THP-1 cells were stimulated to produce MCP-1 by the addition of 1 mg/ml opsonized zymosan. […] was added to THP-1 cells by directly adding DMSO stock solutions, prepared earlier, at a 1/1000 dilution, to each well. Each drug concentration was tested in triplicate wells. Plates were incubated at 37° C. for 24 hours.
After a 24-hour stimulation, supernatants were collected to quantify MCP-1 production. MCP-1 concentrations in the supernatants were determined by ELISA using recombinant human MCP-1 to obtain a standard curve. A 96-well MaxiSorb plate was coated with 100 μL of anti-human MCP-1 Capture Antibody diluted in Coating Buffer (0.1M sodium carbonate pH 9.5) overnight at 4° C. The dilution of Capture Antibody used was lot-specific and was determined empirically. Capture antibody was then aspirated and the plate washed 3 times with Wash Buffer (PBS, 0.05% TWEEN-20). Plates were blocked for 1 hour at room temperature with 200 μL/well of Assay Diluent (PBS, 10% FCS pH 7.0). After blocking, plates were washed 3 times with Wash Buffer. […] Sample supernatants and standards were assayed in triplicate and were incubated at room temperature for 2 hours after addition to the plate coated with Capture Antibody. The plates were washed 5 times and incubated with 100 μL of Working Detector (biotinylated anti-human MCP-1 detection antibody+avidin-HRP) for 1 hour at room temperature. Following this incubation, the plates were washed 7 times and 100 μL of Substrate Solution (tetramethylbenzidine, H2O2) was added to plates and incubated for 30 minutes at room temperature. […] Mean absorbance was determined from triplicate data readings and the mean background was subtracted. MCP-1 concentration values were obtained from the standard curve.

Assay [2] relates to IL-8 production by THP-1 cells. The experiment in a line: IL-8 production by macrophages. The assay is classed as cell-based, human. The note with it: THP-1 cells stimulated with opsonized zymosan, 24 hours, read-out: IC50 IL-8 production. As to the method:
as §1, with “g,” for “g and”, “mg/ml,” for “mg/ml”
THP-1 cells were stimulated to produce IL-8 by the addition of 1 mg/ml opsonized zymosan. Geldanamycin was added to THP-1 cells by directly adding DMSO stock solutions, prepared earlier, at a 1/1000 dilution, to each well. Each drug concentration was tested in triplicate wells. Plates were incubated at 37° C. for 24 hours.
After a 24-hour stimulation, supernatants were collected to quantify IL-8 production. IL-8 concentrations in the supernatants were determined by ELISA using recombinant human IL-8 to obtain a standard curve. A 96-well MAXISORB plate was coated with 100 μL of anti-human IL-8 Capture Antibody diluted in Coating Buffer (0.1M sodium carbonate pH 9.5) overnight at 4° C. The dilution of Capture Antibody used was lot-specific and was determined empirically. Capture antibody was then aspirated and the plate washed 3 times with Wash Buffer (PBS, 0.05% TWEEN-20). Plates were blocked for 1 hour at room temperature with 200 μL/well of Assay Diluent (PBS, 10% FCS pH 7.0). After blocking, plates were washed 3 times with Wash Buffer. Standards and sample dilutions were prepared as follows: (a) sample supernatants were diluted 1/100 and 1/1000; (b) recombinant human IL-8 was prepared at 200 pg/ml and serially diluted to yield as standard curve of 3.1 pg/ml to 200 pg/ml Sample supernatants and standards were assayed in triplicate and were incubated at room temperature for 2 hours after addition to the plate coated with Capture Antibody The plates were washed 5 times and incubated with 100 μL of Working Detector (biotinylated anti-human IL-8 detection antibody+avidin-HRP) for 1 hour at room temperature. Following this incubation, the plates were washed 7 times and 100 μL of Substrate Solution (Tetramethylbenzidine, H2O2) was added to plates and incubated for 30 minutes at room temperature. Stop Solution (2 NH2SO4) was then added to the wells and a yellow color reaction was read at 450 nm with A correction at 570 nm. Mean absorbance was determined from triplicate data readings and the mean background was subtracted. IL-8 concentration values were obtained from the standard curve. […] The IC50 values for the following additional compounds were determined using this assay: IC50 (nM): 17-AAG, 56; mycophenolic acid, 549; resveratrol, 507; rapamycin, 4; 41; SP600125, 344; halofuginone, 641; D-mannose-6-phosphate, 220; epirubicin hydrochloride, 654; topotemay, 257; mithramycin, 33; daunorubicin, 421; celastrol, 490; chromomycin A3, 36

For another assay, the system named is Smooth muscle cells. As to the kind of experiment: Proliferation of smooth muscle cells. The format is cell-based. The note with it: read-out: IC50 proliferation of smooth muscle cells. As to the method:
Smooth muscle cells at 70-90% confluency were trypsinized, replated at 600 cells/well in media in 96-well plates and allowed to attachment overnight. Paclitaxel was prepared in DMSO at a concentration of 10^−2 M and diluted 10-fold to give a range of stock concentrations (10^−8 M to 10^−2 M). […] Each drug concentration was tested in triplicate wells. Plates containing cells and paclitaxel were incubated at 37° C. for 72 hours.
To terminate the assay, the media was removed by gentle aspiration A 1/400 dilution of CYQUANT 400×GR dye indicator (Molecular Probes; Eugene, Oreg.) was added to 1× Cell Lysis buffer, and 200 μL of the mixture was added to the wells of the plate. Plates were incubated at room temperature, protected from light for 3-5 minutes.

The test system of assay [3] is IL-1β production by THP-1 cells. As to the kind of experiment: IL-1β production by macrophages. The format is cell-based, human. The note with it: read-out: IC50 IL-1β production.
In another assay the test system is human fibroblasts. The experiment in a line: Cell proliferation of fibroblasts. The note with it: Fibroblast, 72 hours, CYQUANT, read-out: IC50 cell proliferation of fibroblasts. The assay is classed as cell-based. The procedure, abridged: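 Human fibroblasts plated at 600 cells/well, attached overnight, then exposed to drug in triplicate for 72 h at 37°C. Cell content read with CYQUANT GR dye in lysis buffer after 3-5 min at room temperature.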

Assay [4] relates to TNFα production by THP-1 cells. As to the kind of experiment: TNF-alpha production by macrophages. The format is cell-based, human. The note with it: read-out: IC50 TNFα production. As to the method: The human macrophage cell line, THP-1 was plated in a 12-well plate such that each well contains 1×10^6 cells in 2 ml of media containing 10% FCS. Opsonized zymosan was prepared by resuspending 20 mg of zymosan A in 2 ml of ddH2O and homogenizing until a uniform suspension was obtained. Homogenized zymosan was pelleted at 250 g and resuspended in 4 ml of human serum for a final concentration of 5 mg/ml and incubated in a 37° C. water bath for 20 minutes to enable opsonization.
THP-1 cells were stimulated to produce TNFα by the addition of 1 mg/ml opsonized zymosan. […] Each drug concentration was tested in triplicate wells. Plates were incubated at 37° C. for 24 hours.
After a 24-hour stimulation, supernatants were collected to quantify TNFα production. TNFα concentrations in the supernatants were determined by ELISA using recombinant human TNFα to obtain a standard curve A 96-well MaxiSorb plate was coated with 100 μL of anti-human TNFα Capture Antibody diluted in Coating Buffer (0.1M sodium carbonate pH 9 5) overnight at 4° C. The dilution of Capture Antibody used was lot-specific and was determined empirically. Capture antibody was then aspirated and the plate washed 3 times with Wash Buffer (PBS, 0.05% TWEEN-20) Plates were blocked for 1 hour at room temperature with 200 μL/well of Assay Diluent (PBS, 10% FCS pH 7.0). After blocking, plates were washed 3 times with Wash Buffer. […] Sample supernatants and standards were assayed in triplicate and were incubated at room temperature for 2 hours after addition to the plate coated with Capture Antibody. The plates were washed 5 times and incubated with 100 μL of Working Detector (biotinylated anti-human TNFα detection antibody+avidin-HRP) for 1 hour at room temperature. Following this incubation, the plates were washed 7 times and 100 μL of Substrate Solution (tetramethylbenzidine, H2O2) was added to plates and incubated for 30 minutes at room temperature. […] Mean absorbance was determined from triplicate data readings and the mean background was subtracted. TNFα concentration values were obtained from the standard curve.

The mark [5] stands for this setting: THP-1 cells stimulated with opsonized zymosan, 24 hours.
Where [6] appears, read: Homo sapiens, THP-1 cells stimulated with opsonized zymosan, 24 hours.

Consider 14 compounds from patent US20090226500A1, “SUTURES AND ANTI-SCARRING AGENTS” (Angiotech Pharmaceuticals, Inc, priority 2006, published 2009).

Where a name gives a salt, the structure may show the parent alone. Read-outs that look alike come from different tables or passages of the source.

Consider `C=CCNC1=C2C[C@@H](C)C[C@H](OC)[C@H](O)[C@@H](C)/C=C(\C)[C@H](OC(N)=O)[C@@H](OC)/C=C\C=C(/C)C(=O)NC(=CC1=O)C2=O` [17-AAG, 17-allylaminogeldanamycin], for which the IC50 in assay [1] (setting [5]) stood at 135 nM; in assay [2], 56 nM; in the assay on Smooth muscle cells (72 hours, CYQUANT) it was 47 nM.

For `O=C[C@@H](O)[C@@H](O)[C@H](O)[C@H](O)COP(=O)(O)O` [D-mannose-6-phosphate], the IC50 in assay [2] (Homo sapiens) is 220 nM.

For the compound `C[C@H](NC(=O)C(=O)Nc1ccccc1C(C)(C)C)C(=O)N[C@@H](CC(=O)O)C(=O)COc1c(F)c(F)cc(F)c1F` [IDN-6556], in assay [3] (setting [6]), the IC50 amounted to 642 nM.

For `COc1c(C)c2c(c(O)c1C/C=C(\C)CCC(=O)OCCN1CCOCC1)C(=O)OC2` [Mycophenolate mofetil], the IC50 was 217 nM in assay [1] (setting [6]); 600 to 1200 nM in the assay on human fibroblasts; 463 nM with Smooth muscle cells (72 hours, CYQUANT); 792 nM in assay [4] (setting [6]).

As for `Oc1c2ccccc2c2c3c(cccc13)N=N2` [SP600125], the IC50 was 1200 to 10000 nM with human fibroblasts and 344 nM in assay [2] (Homo sapiens).

Regarding `COc1ccc(C[C@H]2NC[C@H](O)[C@H]2OC(C)=O)cc1` [anisomycin], the IC50 in assay [1] (setting [5]) was 71 nM; in assay [3] (setting [5]) it was 127 nM; with Smooth muscle cells (72 hours, CYQUANT), 276 nM.

`COc1cccc2c1C(=O)c1c(O)c3c(c(O)c1C2=O)C[C@@](O)(C(=O)CO)C[C@@H]3O[C@H]1C[C@H](N)[C@@H](O)[C@H](C)O1` [epirubicin hydrochloride]: the IC50 in assay [3] (setting [5]) amounted to 774 nM; in assay [2] it was 654 nM; in the assay with Smooth muscle cells (72 hours, CYQUANT), 19 nM.

As for `O=C1c2ccccc2-[n+]2ccc3c([nH]c4ccccc43)c21` [fascaplycin, Fascaplysin], the IC50 in assay [1] (Homo sapiens, THP-1, 24 h) is 215 nM; in assay [3] (Homo sapiens, THP-1, 24 h) it was 425 nM; with human fibroblasts it was 600 to 1200 nM; in the assay with Smooth muscle cells (72 hours, CYQUANT), 510 nM; in assay [4] (Homo sapiens, THP-1, 24 h) it was 701 nM.

`O=C1[O][Pt]2([NH][C@@H]3CCCC[C@H]3[NH]2)[O]C1=O` [oxalipatin, Oxaliplatin]: in assay [3] (setting [5]), the IC50 came out at 107 nM.

As to `COc1cc([C@@H]2c3cc4c(cc3[C@H](O)[C@H]3COC(=O)[C@H]23)OCO4)cc(OC)c1OC` [podophyllotoxin], the IC50 in assay [1] (Homo sapiens, THP-1, 24 h) was 28 nM; in the assay with human fibroblasts, 100 to 600 nM; in the assay on Smooth muscle cells (72 h), 21 nM; in assay [4] (Homo sapiens, THP-1, 24 h) it was 75 nM.

For the compound `Oc1ccc(C=Cc2cc(O)cc(O)c2)cc1` [resveratrol], the IC50 in assay [2] (Homo sapiens) was found to be 507 nM.

Take `CC[C@]1(O)C[C@@H]2CN(CCc3c([nH]c4ccccc34)[C@@](C(=O)OC)(c3cc4c(cc3OC)N(C)[C@H]3[C@@](O)(C(=O)OC)[C@H](OC(C)=O)[C@]5(CC)C=CCN6CC[C@]43[C@@H]65)C2)C1` [vinblastine]: the IC50 was 19 nM in assay [1] (setting [5]); 3 nM with Smooth muscle cells (72 hours, CYQUANT); 65 nM in assay [4] (setting [5]).

For the compound `CCC1=C[C@@H]2CN(C1)Cc1c([nH]c3ccccc13)[C@@](C(=O)OC)(c1cc3c(cc1OC)N(C)[C@H]1[C@@](O)(C(=O)OC)[C@H](OC(C)=O)[C@]4(CC)C=CCN5CC[C@]31[C@@H]54)C2` [vinorelbine], the IC50 is 69 nM in assay [1] (setting [5]); 15 nM in the assay with Smooth muscle cells (72 hours, CYQUANT); 605 nM in assay [4] (setting [5]).

Turning to Mithramycin A, the IC50 in assay [1] (setting [5]) was determined as 18 nM; in assay [2], 33 nM; with Smooth muscle cells (72 hours, CYQUANT), 19 nM; in assay [4] (setting [5]) it was 570 nM.
